Key:
[1] = test system: RFP-expressing E. coli, OW94; details: read-out: chlorite IC50; OW94 negative control, growth (OD600) 24 hours at 37° C., MRM medium
Protocol: (§1) 100 μL of water was added to the negative control wells. The plate was then placed in a shaker and cultivated overnight at 37° C., 250 rpm. IC50 were determined 24 hours after inoculation by measuring OD600.

[2] = test system: cCld expressing strain OW116
Protocol: as §1

parental LMG194 = details: read-out: chlorite IC50; LMG194, growth (OD600) 24 hours at 37° C., MRM medium
Protocol: as §1

wtCld-expressing OW95 = test system: wtCld-expressing OW95
Protocol: as §1

[3] = test system: chlorite hyper-resistant strain OW105; details: MRM medium
Protocol: as §1
OW95 cells were revived from freezer stocks, transferred into liquid MRM medium, and induced for Cld expression as described above.

OW116 = test system: OW116
Protocol: (§2) A 2 L round-bottom autoclavable laboratory fermenter (BiOENGiNEERiNG), was operated as an iso-volumetric chemostat with 1 L of MRM medium in the bioreactor vessel. Temperature, dissolved oxygen (dO), and pH were monitored during the course of the experiments. Temperature was set and maintained at 37° C. pH was set to 7.2 and adjusted automatically based on the real time pH value with 1M NaOH or 1M HCl. dO was set to 20% of the maximal dO value at 37° C. with constant air flow of 2 L/min. Constant dO was maintained by automatic agitation speed adjustment based on the real-time dO value. Agitation speed varied between 200-700 RPM, depending on oxygen demand. Two separate pumps were used to control medium inflow and waste outflow rates.
(§3) The chemostat at first operated as a batch culture (dilution rate equal to 0), until the culture reached mid-log phase (OD600 of ˜0.7-1.0), then dilution rate was set to be approximately equal to the cell growth rate. This allowed the bioreactor to achieve a zero net growth while maintaining a near-maximum specific growth rate. […] All growth data were plotted and calculated using the Prism 7 software.

OW94 = test system: OW94
Protocol: as §2, §3

[4] = test system: C. crescentus phage CR-30; details: incubated with chlorite at 30 C
Protocol: (§4) Influent wastewater samples were collected from the East Bay Municipal Utility District's wastewater treatment plant in Oakland, CA, and filtered through […] filters to remove debris and microbes. To make a phage enrichment culture, 5 mL of filtered wastewater was mixed with 5 mL of 2× LB medium and inoculated with 100 μL of stationary E. coli cells, incubated for 48 hours at 37° C., 50 RPM. Next, a sterile cotton swab was dipped into an overnight E. coli culture, smeared on an LB agar plate, and 10 μL of the phage enrichment culture was then spotted on the plate. The plate was incubated overnight at 37° C. […] Phage particles from the clear zone were picked into the phage buffer (10 mM Tris, 1 mM CaCl2 10 mM MgCl2, 68 mM NaCl, pH 7.5, adapted from the Phage Hunting Program, University of Pittsburgh), followed by dilution to extinction and plating to obtain single plaques with pure phage cultures. Phage cultures were maintained at 4° C. in the phage buffer. […] Samples were taken at designated time points and mixed with PYE (0.3%) agar and log phase (OD660 0.1-04) C. crescentus culture before plating on PYE plates. Plaque forming unites were counted after 24 hours.

E. coli lytic phages = details: 4 mM chlorite, 37° C.
Protocol: as §4

SCW enrichment culture = details: 4 mM chlorite, OW117 bioreactor, SCW enrichment added
Protocol: as §2

[5] = test system: contaminants from Strawberry Creek water; details: 10 mM chlorite spiked, reactor contaminated with 1% (v/v) creek water, OW115
Protocol: as §2

[6] = test system: SCW enrichment culture, OW117 and OW118; details: SCW enrichment vs OW117 vs OW118
Source text: as §3

Azospira suillum PS = details: 40 μM chlorite, unpublished observations
[7] = test system: cld deletion (Acid) mutant; details: 40 μM chlorite, unpublished observations
[8] = 4 mM chlorite spiked into chemostat at equilibrium growth, 37° C.
[9] = batch cultures, different chlorite concentrations

## Sodium chlorite
[1]
  IC50: 0.56 mM
[2]; cCld vs wtCld
  chlorite resistance of cCld relative to wtCld: 5 fold
[2]; read-out: chlorite IC50, OW116, growth (OD600) 24 hours at 37° C., MRM medium
  IC50: 8.94 mM
Parental LMG194
  IC50: 0.3 mM
wtCld-expressing OW95; OW95 vs OW94 and LMG194
  increase in chlorite resistance compared to negative controls: three-fold increase
wtCld-expressing OW95; read-out: chlorite IC50, OW95, Cld induced at 26° C., growth (OD600) 24 hours at 37° C., MRM medium
  IC50: 1.74 mM
[3]; end of directed evolution, 37° C.
  chlorite concentration in which the strain was able to grow, reaching a similar final OD600 as without chlorite control: 8 mM
[3]; read-out: chlorite IC50, OW105, growth (OD600) 24 hours at 37° C.
  IC50: 4.6 mM
OW116; [8]
  specific growth rate after the chlorite spike: 0.64 ± 0.10 h⁻¹
OW116; 4 mM chlorite, chemostat, vs before spike
  reduction of specific growth rate after the chlorite spike: ~20%
OW116; [9]
  specific growth rate in batch culture as chlorite concentration increased: only reduced slightly
OW94; [8]
  specific growth rate after the chlorite spike: 0.01 ± 0.07 h⁻¹
OW94; [9]
  specific growth rate in batch culture as chlorite concentration increased: drastically decreased
[4]
  phage inactivation: chlorite-induced phage inactivation
E. coli lytic phages
  phage inactivation: chlorite-induced phage inactivation
SCW enrichment culture
  indigo production after addition of contaminants: indigo was steadily produced until the end of the experiment
[5]
  effect of chlorite spike on the contaminated bioreactor: contaminants were inhibited and washed out
[6]
  batch growth in medium with chlorite: only OW118 could endure medium with chlorite
Azospira suillum PS
  aerobic growth in the presence of chlorite: grew aerobically
[7]
  aerobic growth in the presence of chlorite: failed to grow
